According to patent EP4782008A1 (priority 2023, dated 2025):

Key:
[1] = molecular target: hERG (Homo sapiens, UniProt Q12809); details: background statement; cited from earlier work
[2] = background statement; cited from earlier work
[3] = background statement; cited from earlier work; remark: listed apart in the source
[4] = background statement; cited from earlier work; remark: listed apart in the source
[5] = Pharmacokinetics following single oral administration; type: in vivo, healthy Chinese subjects; details: for AUC(0-inf) / peak plasma drug concentration: empty stomach
Experimental: Trial design: single-center, randomized, double-blind, placebo-controlled, dose-escalation, single administration. Number of subjects: Planned enrollment: 52 subjects, Final analysis: 51 subjects.
• Specifications: 0.5 mg/tablet, 1 mg/tablet, 2 mg/tablet, prepared according to the method of Example 1; • Dose: 0.5 mg, 1 mg, 2 mg, 4 mg, 8 mg, 12 mg. • Administration method: Single-dose, taken with an appropriate amount of water (240 mL).
Evaluation indicators of pharmacokinetic parameters: Time to peak (Tmax), peak concentration (Cmax), area under the plasma concentration time curve from 0 to t (AUC0-t), area under the plasma concentration time curve from 0 to infinity (AUC0-∞), elimination rate constant (λz), half-life period (t1/2), total clearance/bioavailability (CL/F), apparent volume of distribution/bioavailability (Vd/F).
Pharmacokinetic analysis: Pharmacokinetic parameters were calculated using the non-compartmental analysis (NCA) and Phoenix WinNonlin 7.0 data analysis software. Descriptive statistical analysis was performed on pharmacokinetic parameters, providing the number of subjects, arithmetic mean, standard deviation, minimum, median, maximum, and coefficient of variation (CV). Tmax was expressed as median (minimum - maximum). AUC and Cmax belong to a log-normal distribution. The geometric mean was also provided. The relationship between administered dose and drug plasma exposure was evaluated by plotting scatter plots of log-transformed pharmacokinetic parameters (AUC and Cmax) in relation to log dose. Furthermore, the Power model method was used to further explore the linear analysis of administered dose and drug plasma exposure.
A single dose of the tablets of the compound of formula (I) was administered orally to healthy volunteers on empty stomach. […] When the administered doses were 1 mg, 2 mg, 4 mg, 8 mg, and 12 mg, the peak plasma drug concentrations were 1.19 ng/mL, 2.43 ng/mL, 8.61 ng/mL, 16.4 ng/mL, and 23.5 ng/mL, respectively, and the AUC0-∞ were 14.7 h·ng/mL, 29.8 h·ng/mL, 69.4 h·ng/mL, 135 h·ng/mL, and 220 h·ng/mL, respectively. […] Within the dose range of 1 mg-12 mg, Cmax and AUC0-∞ increased with increasing administered dose, and the increase ratio in AUC0-∞ was basically consistent with the dose increase ratio. The inter-individual variability of plasma drug exposure is around 30%.

hERG, sequence (Q12809 whole entry): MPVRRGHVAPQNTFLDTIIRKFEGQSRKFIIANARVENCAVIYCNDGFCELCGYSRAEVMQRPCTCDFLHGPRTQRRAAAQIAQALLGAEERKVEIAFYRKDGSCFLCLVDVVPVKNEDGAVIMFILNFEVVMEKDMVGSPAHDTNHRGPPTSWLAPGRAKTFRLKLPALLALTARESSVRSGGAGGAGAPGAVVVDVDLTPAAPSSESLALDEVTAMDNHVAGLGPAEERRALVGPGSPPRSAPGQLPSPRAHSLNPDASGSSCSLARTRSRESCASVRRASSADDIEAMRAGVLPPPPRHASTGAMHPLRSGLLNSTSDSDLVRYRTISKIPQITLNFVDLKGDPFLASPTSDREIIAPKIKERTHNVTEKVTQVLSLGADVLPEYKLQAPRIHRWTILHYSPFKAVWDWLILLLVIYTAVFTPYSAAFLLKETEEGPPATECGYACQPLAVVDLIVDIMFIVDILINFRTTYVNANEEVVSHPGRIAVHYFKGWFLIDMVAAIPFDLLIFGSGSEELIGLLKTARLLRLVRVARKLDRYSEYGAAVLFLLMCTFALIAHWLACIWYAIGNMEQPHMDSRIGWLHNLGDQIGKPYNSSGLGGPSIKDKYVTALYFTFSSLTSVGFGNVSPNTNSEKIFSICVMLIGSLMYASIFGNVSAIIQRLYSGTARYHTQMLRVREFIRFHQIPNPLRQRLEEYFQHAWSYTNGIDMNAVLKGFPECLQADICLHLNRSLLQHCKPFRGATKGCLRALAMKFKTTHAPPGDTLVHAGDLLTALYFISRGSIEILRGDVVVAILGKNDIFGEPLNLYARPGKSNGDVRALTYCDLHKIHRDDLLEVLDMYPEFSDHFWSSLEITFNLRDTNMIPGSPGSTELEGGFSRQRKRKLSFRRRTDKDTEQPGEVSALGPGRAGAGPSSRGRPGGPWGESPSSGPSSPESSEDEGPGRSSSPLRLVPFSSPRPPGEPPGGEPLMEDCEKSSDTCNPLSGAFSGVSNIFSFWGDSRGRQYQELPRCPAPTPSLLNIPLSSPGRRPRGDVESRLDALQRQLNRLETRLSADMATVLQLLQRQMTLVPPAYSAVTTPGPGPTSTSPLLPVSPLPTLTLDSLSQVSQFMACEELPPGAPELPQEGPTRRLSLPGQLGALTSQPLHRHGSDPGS

Structure (SMILES): COc1cc2c(cc1OC)C(=O)C(CC1(F)CCN(Cc3ccccc3F)CC1)C2 (stereo not shown) [compound of formula (I), 2-(4-fluoro-(1-(2-fluorobenzyl))piperidin-4-yl-methyl)-5,6-dimethoxy-2,3-dihydro-1-indanone]
- hERG toxicity [1]: no
- genetic toxicity [2]: no
- drug concentration in brain tissue relative to the plasma drug concentration [3]: 4.4 times
- oral bioavailability [4]: high
- AUC(0-inf) ([5]; human, plasma, single oral dose 1 mg): 14.7 ng·h/mL
- AUC(0-inf) ([5]; human, plasma, single oral dose 2 mg): 29.8 ng·h/mL
- AUC(0-inf) ([5]; human, plasma, single oral dose 4 mg): 69.4 ng·h/mL
- AUC(0-inf) ([5]; human, plasma, single oral dose 8 mg): 135 ng·h/mL
- AUC(0-inf) ([5]; human, plasma, single oral dose 12 mg): 220 ng·h/mL
- half-life ([5]; human, plasma, single oral dose of tablets on empty stomach, range over dose groups, read-out: mean plasma drug elimination half-life period): 14.2 to 32.1 h
- inter-individual variability of plasma drug exposure ([5]; single oral dose): around 30%
- peak plasma drug concentration ([5]; single oral dose 1 mg): 1.19 ng/mL
- peak plasma drug concentration ([5]; single oral dose 2 mg): 2.43 ng/mL
- peak plasma drug concentration ([5]; single oral dose 4 mg): 8.61 ng/mL
- peak plasma drug concentration ([5]; single oral dose 8 mg): 16.4 ng/mL
- peak plasma drug concentration ([5]; single oral dose 12 mg): 23.5 ng/mL
